Values of other authors as cited in patent publication US8440213B2, “Pesticides formulations” (priority 2003, dated 2013).
In brackets after ≈: the same amount, converted by molar mass.

Settings: in water, at 20° C.

Compound	Solubility [µg/mL]
COc1nn(CSP(=S)(OC)OC)c(=O)s1 [Methidathion]	200 (≈ 662 µM)
CCCN(CCC)c1c([N+](=O)[O-])cc(C(F)(F)F)cc1[N+](=O)[O-] [Trifluralin, α,α,α,-trifluoro-2,6-dinitro-N,N-dipropyl-p-toluidine]	0.4 (≈ 1.19 µM)
CCOP(=S)(OCC)Oc1nc(Cl)c(Cl)cc1Cl [Chlorpyriphos]	1.4 (≈ 3.99 µM)
CCOc1ccc(C(C)(C)COCc2cccc(Oc3ccccc3)c2)cc1 [Etofenprox, 2-(4-ethoxyphenyl)-2-methylpropyl 3-phenoxybenzyl ether]	<0.001
